# Assay results as given in article PMC8571951, “An activity‐based bioprobe differentiates a novel small molecule inhibitor from a LOXL2 antibody and provides renewed promise for anti‐fibrotic therapeutic strategies” (Clinical and Translational Medicine, 2021).
# Target: T1, rh LOXL2 (Homo sapiens, UniProt Q9Y4K0)
# T1 sequence (Q9Y4K0 26-774): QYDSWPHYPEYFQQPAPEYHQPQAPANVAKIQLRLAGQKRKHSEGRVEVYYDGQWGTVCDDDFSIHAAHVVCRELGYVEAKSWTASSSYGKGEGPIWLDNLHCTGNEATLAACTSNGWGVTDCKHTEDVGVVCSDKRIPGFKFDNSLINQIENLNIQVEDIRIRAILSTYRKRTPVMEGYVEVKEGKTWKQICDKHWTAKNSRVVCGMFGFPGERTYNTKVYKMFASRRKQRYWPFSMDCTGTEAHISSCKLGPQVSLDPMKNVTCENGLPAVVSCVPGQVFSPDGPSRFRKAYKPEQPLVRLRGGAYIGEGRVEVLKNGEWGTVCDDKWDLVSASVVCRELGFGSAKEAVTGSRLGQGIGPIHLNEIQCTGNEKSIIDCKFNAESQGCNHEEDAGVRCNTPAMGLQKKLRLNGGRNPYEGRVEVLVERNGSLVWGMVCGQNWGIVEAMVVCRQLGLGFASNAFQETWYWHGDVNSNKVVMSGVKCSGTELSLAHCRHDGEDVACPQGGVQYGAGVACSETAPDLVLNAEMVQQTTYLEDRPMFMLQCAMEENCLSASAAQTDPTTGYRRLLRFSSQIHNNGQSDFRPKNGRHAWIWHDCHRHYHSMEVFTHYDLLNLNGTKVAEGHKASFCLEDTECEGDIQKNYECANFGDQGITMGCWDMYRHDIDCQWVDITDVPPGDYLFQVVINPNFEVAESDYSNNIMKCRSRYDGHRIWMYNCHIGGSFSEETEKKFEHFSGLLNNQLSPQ
# Assay: Jump dilution assay, rh LOXL2
# Type: biochemical
# Source text: FIGURE 1 Characteristics of the activity‐based probe (ABP) PXS‐5878. (A) Chemical structure of PXS‐5878, with functional subunits denoted with different colours. The fluoroallylamine moiety (blue) was designed to interact with the lysine tyrosylquinone (LTQ) co‐factor within the lysyl oxidase active sites. An extended linker (green) was incorporated to provide optimal separation between the reactive functional group and the tag, avoiding unfavourable steric hindrance. Biotin was selected as a tag, with higher sensitivity found to be achieved using a double tag (red), resulting in PXS‐5878 as the preferred ABP. (B) Concentration‐dependent inhibition of recombinant human (rh) lysyl oxidase‐like 1‐4 (LOXL1‐4) and native bovine LOX in a standard Amplex Red assay with 30 min pre‐incubation; n = 3–4 independent experiments, standard error of mean (SEM). Native bovine LOX was used as a surrogate for human LOX as both enzymes have similar pharmacology for fluoroallylamines.[2], [9] (C) Irreversible nature of PXS‐5878 enzyme inhibition confirmed using a jump dilution assay. Enzyme (rh LOXL1, rh LOXL2 or LOXL3) was pre‐incubated with 10 × IC50 of PXS‐5878 for 30 min, then diluted 100x and remaining activity assessed by Amplex Red assay. […] Each value is an average of three experiments. (D) Schematic representation of the assay development to detect lysyl oxidase activity by PXS‐5878 using a direct enzyme‐linked assay with lysyl oxidases as the target analyte. HRP: horseradish peroxidase; TMB: 3,3′,5,5′‐tetramethylbenzidine, a chromogenic substrate. […]
# For fluoroallylamine-based inhibitors, replacement of fluorine with hydrogen (leading to the corresponding des-fluoro structures) results in a drop in potency and a switch from irreversible to reversible inhibition. […] (B) For PXS-5878, removal of the fluoro moiety in a simplified analogue results in a significant drop in potency for LOXL2, meaning (ir)reversibility cannot be accurately measured.
smiles,measurement,value
CC(C)c1c(Cc2ccc(S(C)(=O)=O)nc2)c2ncccc2n1C/C(F)=C/CN [PXS‐5338],Mode of inhibition (reversible/irreversible) of LOXL2,irreversibly inhibits the enzyme
